Measurements as given in the NIST ThermoML archive (doi:10.1016/j.jct.2014.05.016).

Experiment: xn = mol fraction of the nth substance listed
Settings: 100 kPa, Liquid; for viscosity: Concentric cylinders viscometry; for mass density: Vibrating tube method

CCCC[n+]1ccccc1.F[B-](F)(F)F [1-butylpyridinium tetrafluoroborate] + CCCCn1cc[n+](C)c1.F[B-](F)(F)F
Settings | mass density [kg/m3] | viscosity [mPa·s]
293.15 K, x2 = 0 | 1216.6 | 228.9
293.15 K, x2 = 0.1007 | 1215.4 | –
293.15 K, x2 = 0.1009 | – | 219.4
293.15 K, x2 = 0.2004 | 1214.3 | –
293.15 K, x2 = 0.2005 | – | 209.3
293.15 K, x2 = 0.3001 | 1213.1 | –
293.15 K, x2 = 0.3003 | – | 199.5
293.15 K, x2 = 0.4001 | – | 190
293.15 K, x2 = 0.4004 | 1211.7 | –
293.15 K, x2 = 0.4999 | – | 180.9
293.15 K, x2 = 0.5009 | 1210.6 | –
293.15 K, x2 = 0.6004 | 1209.4 | –
293.15 K, x2 = 0.6007 | – | 172.5
293.15 K, x2 = 0.7004 | – | 163.9
293.15 K, x2 = 0.7013 | 1208.1 | –
293.15 K, x2 = 0.8001 | – | 156.9
293.15 K, x2 = 0.8007 | 1206.7 | –
293.15 K, x2 = 0.8987 | 1205.5 | –
293.15 K, x2 = 0.8998 | – | 148.7
298.15 K, x2 = 0 | 1213.1 | 166.9
298.15 K, x2 = 0.1007 | 1211.9 | –
298.15 K, x2 = 0.1009 | – | 160.8
298.15 K, x2 = 0.2004 | 1210.8 | –
298.15 K, x2 = 0.2005 | – | 153.7
298.15 K, x2 = 0.3001 | 1209.6 | –
298.15 K, x2 = 0.3003 | – | 147.1
298.15 K, x2 = 0.4001 | – | 140.8
298.15 K, x2 = 0.4004 | 1208.2 | –
298.15 K, x2 = 0.4999 | – | 134.6
298.15 K, x2 = 0.5009 | 1207.1 | –
298.15 K, x2 = 0.6004 | 1205.8 | –
298.15 K, x2 = 0.6007 | – | 128.8
298.15 K, x2 = 0.7004 | – | 123.1
298.15 K, x2 = 0.7013 | 1204.5 | –
298.15 K, x2 = 0.8001 | – | 117.9
298.15 K, x2 = 0.8007 | 1203.1 | –
298.15 K, x2 = 0.8987 | 1202 | –
298.15 K, x2 = 0.8998 | – | 112.7
303.15 K, x2 = 0 | 1209.6 | 124.5
303.15 K, x2 = 0.1007 | 1208.4 | –
303.15 K, x2 = 0.1009 | – | 120.4
303.15 K, x2 = 0.2004 | 1207.3 | –
303.15 K, x2 = 0.2005 | – | 115.6
303.15 K, x2 = 0.3001 | 1206.1 | –
303.15 K, x2 = 0.3003 | – | 111.1
303.15 K, x2 = 0.4001 | – | 106.9
303.15 K, x2 = 0.4004 | 1204.7 | –
303.15 K, x2 = 0.4999 | – | 102.5
303.15 K, x2 = 0.5009 | 1203.6 | –
303.15 K, x2 = 0.6004 | 1202.3 | –
303.15 K, x2 = 0.6007 | – | 98.69
303.15 K, x2 = 0.7004 | – | 94.64
303.15 K, x2 = 0.7013 | 1201 | –
303.15 K, x2 = 0.8001 | – | 90.99
303.15 K, x2 = 0.8007 | 1199.6 | –
303.15 K, x2 = 0.8987 | 1198.4 | –
303.15 K, x2 = 0.8998 | – | 87.26
308.15 K, x2 = 0 | 1206.2 | 94.97
308.15 K, x2 = 0.1007 | 1204.9 | –
308.15 K, x2 = 0.1009 | – | 92.11
308.15 K, x2 = 0.2004 | 1203.8 | –
308.15 K, x2 = 0.2005 | – | 88.99
308.15 K, x2 = 0.3001 | 1202.6 | –
308.15 K, x2 = 0.3003 | – | 85.73
308.15 K, x2 = 0.4001 | – | 82.59
308.15 K, x2 = 0.4004 | 1201.2 | –
308.15 K, x2 = 0.4999 | – | 79.65
308.15 K, x2 = 0.5009 | 1200.1 | –
308.15 K, x2 = 0.6004 | 1198.8 | –
308.15 K, x2 = 0.6007 | – | 76.79
308.15 K, x2 = 0.7004 | – | 73.92
308.15 K, x2 = 0.7013 | 1197.5 | –
308.15 K, x2 = 0.8001 | – | 71.3
308.15 K, x2 = 0.8007 | 1196.1 | –
308.15 K, x2 = 0.8987 | 1194.9 | –
308.15 K, x2 = 0.8998 | – | 68.74
313.15 K, x2 = 0 | 1202.8 | 73.94
313.15 K, x2 = 0.1007 | 1201.5 | –
313.15 K, x2 = 0.1009 | – | 71.92
313.15 K, x2 = 0.2004 | 1200.4 | –
313.15 K, x2 = 0.2005 | – | 69.59
313.15 K, x2 = 0.3001 | 1199.2 | –
313.15 K, x2 = 0.3003 | – | 67.3
313.15 K, x2 = 0.4001 | – | 65.09
313.15 K, x2 = 0.4004 | 1197.8 | –
313.15 K, x2 = 0.4999 | – | 62.92
313.15 K, x2 = 0.5009 | 1196.6 | –
313.15 K, x2 = 0.6004 | 1195.3 | –
313.15 K, x2 = 0.6007 | – | 61
313.15 K, x2 = 0.7004 | – | 58.91
313.15 K, x2 = 0.7013 | 1193.9 | –
313.15 K, x2 = 0.8001 | – | 56.91
313.15 K, x2 = 0.8007 | 1192.6 | –
313.15 K, x2 = 0.8987 | 1191.4 | –
313.15 K, x2 = 0.8998 | – | 54.99
318.15 K, x2 = 0 | – | 58.64
318.15 K, x2 = 0.1009 | – | 57.19
318.15 K, x2 = 0.2005 | – | 55.49
318.15 K, x2 = 0.3003 | – | 53.81
318.15 K, x2 = 0.4001 | – | 52.19
318.15 K, x2 = 0.4999 | – | 50.59
318.15 K, x2 = 0.6007 | – | 49.12
318.15 K, x2 = 0.7004 | – | 47.51
318.15 K, x2 = 0.8001 | – | 46.14
318.15 K, x2 = 0.8998 | – | 44.72
